Test results taken from patent US9422297B2, “Tricyclic compounds having cytostatic and/or cytotoxic activity and methods of use thereof” (Duquesne University of the Holy Ghost, priority 2007, dated 2016).

Tests used:
Format in all cases: cell-based
[1] = test system: OCRF-CEM; test: NCI In-Vitro Testing, Leukemia
[2] = test system: SK-OV-3; test: NCI In-Vitro Testing, Ovarian Cancer
[3] = test system: ACHN; test: NCI In-Vitro Testing, Renal Cancer
[4] = test system: NCWADR-RES; test: NCI In-Vitro Testing, Breast Cancer
[5] = test system: MDA-MB-231/ATCC; test: NCI In-Vitro Testing, Breast Cancer
[6] = test system: MDA-MB-435; test: NCI In-Vitro Testing, Breast Cancer

Nc1nc2c(c(Nc3ccc(Cl)cc3)n1)-c1ccccc1C2 [AAG145-136]
GI50 [1]: 3.12E−6 Molar | LC50 [1]: >1.00E−4 Molar | TGI [1]: >1.00E−4 Molar | Percent Growth ([1]; Log10 Concentration −4.0 Molar): 11% | Percent Growth ([1]; Log10 Concentration −5.0 Molar): 6% | Percent Growth ([1]; Log10 Concentration −6.0 Molar): 8% | Percent Growth ([1]; Log10 Concentration −7.0 Molar): 22% | Percent Growth ([1]; Log10 Concentration −8.0 Molar): 77% | GI50 [2]: 2.09E−6 Molar | LC50 [2]: >1.00E−4 Molar | TGI [2]: >1.00E−4 Molar | Percent Growth ([2]; Log10 Concentration −4.0 Molar): 16% | Percent Growth ([2]; Log10 Concentration −5.0 Molar): 36% | Percent Growth ([2]; Log10 Concentration −6.0 Molar): 57% | Percent Growth ([2]; Log10 Concentration −7.0 Molar): 97% | Percent Growth ([2]; Log10 Concentration −8.0 Molar): 106% | GI50 [3]: 3.42E−7 Molar | LC50 [3]: >1.00E−4 Molar | TGI [3]: 1.41E−5 Molar | Percent Growth ([3]; Log10 Concentration −4.0 Molar): −22% | Percent Growth ([3]; Log10 Concentration −5.0 Molar): 4% | Percent Growth ([3]; Log10 Concentration −6.0 Molar): 21% | Percent Growth ([3]; Log10 Concentration −7.0 Molar): 83% | Percent Growth ([3]; Log10 Concentration −8.0 Molar): 89% | GI50 [4]: 7.87E−7 Molar | LC50 [4]: >1.00E−4 Molar | TGI [4]: >1.00E−4 Molar | Percent Growth ([4]; Log10 Concentration −4.0 Molar): 24% | Percent Growth ([4]; Log10 Concentration −5.0 Molar): 29% | Percent Growth ([4]; Log10 Concentration −6.0 Molar): 44% | Percent Growth ([4]; Log10 Concentration −7.0 Molar): 100% | Percent Growth ([4]; Log10 Concentration −8.0 Molar): 100% | GI50 [5]: 6.41E−7 Molar | LC50 [5]: >1.00E−4 Molar | TGI [5]: >1.00E−4 Molar | Percent Growth ([5]; Log10 Concentration −4.0 Molar): 30% | Percent Growth ([5]; Log10 Concentration −5.0 Molar): 29% | Percent Growth ([5]; Log10 Concentration −6.0 Molar): 45% | Percent Growth ([5]; Log10 Concentration −7.0 Molar): 70% | Percent Growth ([5]; Log10 Concentration −8.0 Molar): 92% | GI50 [6]: 5.54E−7 Molar | LC50 [6]: >1.00E−4 Molar | TGI [6]: >1.00E−4 Molar | Percent Growth ([6]; Log10 Concentration −4.0 Molar): 33% | Percent Growth ([6]; Log10 Concentration −5.0 Molar): 20% | Percent Growth ([6]; Log10 Concentration −6.0 Molar): 31% | Percent Growth ([6]; Log10 Concentration −7.0 Molar): 104% | Percent Growth ([6]; Log10 Concentration −8.0 Molar): 104%
